# Source: the NIST ThermoML archive (doi:10.1021/je5004719)
# ± gives the expanded uncertainty stated by the source.
# Conditions: 101.33 kPa, Liquid; for speed of sound: Sing-around technique in a fixed-path interferometer; for mass density: Vibrating tube method
SMILES,speed of sound (298.15 K) [m/s],mass density (298.15 K) [kg/m3],speed of sound (303.15 K) [m/s],mass density (303.15 K) [kg/m3],speed of sound (308.15 K) [m/s],mass density (308.15 K) [kg/m3]
C1CCOCC1 [tetrahydropyran],1269.8 ± 0.8,879.13 ± 1,1246.8 ± 0.8,873.99 ± 1,1224.4 ± 0.8,868.83 ± 1
c1ccccc1 [benzene],1299.4 ± 0.8,873.54 ± 1,1276.1 ± 0.77,868.2 ± 1,1252.9 ± 0.76,862.84 ± 1
Cc1ccccc1 [toluene],1304.6 ± 0.8,862.18 ± 1,1283.2 ± 0.8,857.51 ± 1,1261.8 ± 0.8,852.82 ± 1
Cc1ccccc1Cl [2-chlorotoluene],1298.7 ± 1,1077.3 ± 1,1280.7 ± 1,1072.5 ± 1,1262.7 ± 1,1067.6 ± 1
"Cc1ccccc1C [1,2-dimethylbenzene]",1346.2 ± 0.7,875.91 ± 1,1326.2 ± 0.7,871.7 ± 1,1306.1 ± 0.7,867.48 ± 1
